Results published in patent publication US9018187B2, “Cationic lipids and methods for the delivery of therapeutic agents” (Protiva Biotherapeutics, Inc., priority 2009, dated 2015).
“Also recorded” adds a separate entry of the source.

Key:
liver ApoB mRNA = assay: Liver ApoB mRNA knockdown by 1:57 SNALP with APOB siRNA in mice; format: in vivo, mouse; details: 1:57 SNALP, 6:1 L:D, IV 0.1 mg/kg, female Balb/c mice, 48 hours
Protocol: Each SNALP formulation was administered by intravenous (IV) injection at 0.1 mg/kg into female Balb/c mice (n=3 per group). Plasma total cholesterol and/or liver ApoB mRNA levels were evaluated at 48 hours after SNALP administration. For dose response studies, SNALP formulations were administered by IV injection at 0.01 mg/kg, 0.03 mg/kg, or 0.1 mg/kg into female Balb/c mice (n=3 per group). Liver ApoB mRNA levels were evaluated at 48 hours after SNALP administration.
1:57 SNALP formulations containing encapsulated APOB siRNA at a 6:1 lipid:drug (L:D) ratio were prepared with the following cationic lipids: (1) DLinDMA; (2) Linoleyl/Linolenyl DMA (“Lin/LenDMA”); (3) DPanDMA; (4) TLinDMA; (5) Linoleyl/C6:0 DMA (“Lin/6:0”); (6) C2-DPanDMA; (7) DLin-C2K-Pip (30H); and (8) DHep-C2K-DMA.
(§1) Each SNALP formulation was administered by intravenous (IV) injection at 0.1 mg/kg into female Balb/c mice (n=3 per group). Livers were colleted at 48 hours after SNALP administration and liver ApoB mRNA levels were evaluated by performing an ApoB/GAPDH QG assay. Table 2 provides a characterization of the SNALP formulations used in this in vivo study.
In another study, 1:57 SNALP formulations containing encapsulated APOB siRNA at a 6:1 L:D ratio were prepared with the following cationic lipids: (1) DLinDMA; (2) C2-DPanDMA; (3) DPan-C2K-DMA; (4) DPan-C3K-DMA; and (5) DPan-C1K6-DMA.
as §1, with “3” for “2”
For dose response studies, SNALP formulations were administered by IV injection at 0.01 mg/kg, 0.033 mg/kg, or 0.1 mg/kg into female Balb/c mice (n=3 per group). Liver ApoB mRNA levels were evaluated at 48 hours after SNALP administration by a branched DNA assay (QuantiGene assay) to assess ApoB mRNA relative to the housekeeping gene GAPDH.

[1] = Characterization of SNALP formulations (size, polydispersity, encapsulation); format: physicochemical; details: Table 5; for Initial Encaps. (%): 7:54 SNALP (PEG750-C-DMA 6.76 | cationic 54.06 | Chol 32.43 | DPPC 6.75 mol %) with PLK-1 siRNA; for Finished Product Encaps. (%) / Finished Product Poly / Finished Product Z-Avg (nm): 7:54 SNALP with PLK-1 siRNA
Protocol: In the context of nucleic acids, full encapsulation may be determined by performing a membrane-impermeable fluorescent dye exclusion assay, which uses a dye that has enhanced fluorescence when associated with nucleic acid. Specific dyes such as OliGreen® and RiboGreen® (Invitrogen Corp.; Carlsbad, Calif.) are available for the quantitative determination of plasmid DNA, single-stranded deoxyribonucleotides, and/or single- or double-stranded ribonucleotides. Encapsulation is determined by adding the dye to a liposomal formulation, measuring the resulting fluorescence, and comparing it to the fluorescence observed upon addition of a small amount of nonionic detergent. Detergent-mediated disruption of the liposomal bilayer releases the encapsulated nucleic acid, allowing it to interact with the membrane-impermeable dye. Nucleic acid encapsulation may be calculated as E=(Io−I)Io, where I and Io refer to the fluorescence intensities before and after the addition of detergent (see, Wheeler et al., Gene Ther., 6:271-281 (1999)). […]
(§2) Each SNALP formulation was administered by intravenous (IV) injection at 3 mg/kg into Scid mice containing Hep3B tumors (n=4 per group). Tumor tissue was colleted at 24 hours after SNALP administration and tumor PLK-1 mRNA levels were evaluated by performing a PLK-1/GAPDH QG assay. Table 5 provides a characterization of the SNALP formulations used in this in vivo study.

tumor PLK-1 mRNA = assay: Tumor PLK-1 mRNA knockdown by 7:54 SNALP in Scid mice containing Hep3B tumors; format: in vivo, mouse; details: FIG. 11, 7:54 SNALP with PLK-1 siRNA, IV 3 mg/kg, 24 hours, PLK-1/GAPDH QG assay
Protocol: 7:54 SNALP formulations containing encapsulated PLK-1 siRNA were prepared with the following cationic lipids: (1) DLinDMA; (2) TLinDMA; (3) DLin-C1K-DMA (“DLin-K-DMA”); (4) DPanDMA; (5) DPan-C2-DMA (“C2-DPanDMA”); (6) DPan-C2K-DMA; (7) DPan-C3K-DMA; and (8) DPan-C1K6-DMA.
as §2

[2] = TNS assay, apparent pKa of cationic lipid in 1:57 SNALP; details: 1:57 SNALP formulation containing encapsulated APOB siRNA
Protocol: 1:57 SNALP formulations containing encapsulated APOB siRNA were prepared as described in Section VI above with the following cationic lipids: (1) DLinDMA; (2) DLenDMA; (3) γ-DLenDMA (“g-DLenDMA”); (4) C2-DLinDAP; (5) DLinPip (4-OH); (6) DLinPip; (7) DLinPip (3-OH); (8) DLinDEA; (9) DDocDMA; (10) DAraDMA; (11) TLinDMA; (12) DLin-C2K Pip (30H); (13) DHep-C2K-DMA; (14) DPanDMA; (15) C2-DPanDMA (“DPan-C2-DMA”); (16) DPan-C2K-DMA; (17) DPan-C3K-DMA; (18) DPan-K6-DMA (“DPan-C1K6-DMA”); and (19) C2-TLinDMA.
The apparent pKa of the cationic lipids present in these SNALP formulations was determined using a 2-(p-toluidinyl)-naphthalene-6-sodium sulfonate (TNS) assay. TNS is a negatively-charged indicator of membrane potential that is electrostatically attracted to positively charged membranes (see, Bailey and Cullis, Biochemistry, 33 12573-80 (1994)). Subsequent adsorption to the lipid membrane results in the immediate environment of the TNS becoming more lipophilic, removing the water molecules that otherwise quench TNS fluorescence. As a result, TNS measures the surface potential of the particle, wherein the more positive the surface potential, the greater the level of fluorescence. The surface pKa values of each SNALP formulation were determined by varying the local pH in the presence of TNS. By plotting fluorescence versus pH, the pKa of the cationic lipid can be estimated in the particle as the pH where fluorescence equals 50% of total fluorescence.

Compound	ApoB silencing activity (liver ApoB mRNA) (liver ApoB mRNA; Example 16, FIG. 8, ApoB/GAPDH QG assay)	ApoB silencing activity (liver ApoB mRNA) (liver ApoB mRNA; Example 16 second study, FIG. 9, 0.1 mg/kg)	Initial Encaps. (%) [1]	Finished Product Encaps. (%) [1]	Finished Product Poly [1]	Finished Product Z-Avg (nm) [1]	tumor PLK-1 mRNA silencing activity (tumor PLK-1 mRNA)	pKa [2]
CC(C)CCCC(C)CCCC(C)CCCC(C)CCOCC(CCN(C)C)OCCC(C)CCCC(C)CCCC(C)CCCC(C)C (centres unmarked) [Compound C2-DPanDMA, 1,2-Diphytanyloxy-(N,N-dimethyl)-butyl-4-amine]	more potent compared to DLinDMA and substantially more potent compared to DPanDMA	more potent compared to DLinDMA; also recorded: greatest activity of all the phytanyl-containing cationic lipids tested	86%	100%	0.06	81 nm	no difference in silencing activity	~6.1
CC(C)CCCC(C)CCCC(C)CCCC(C)CCOCC(CN(C)C)OCCC(C)CCCC(C)CCCC(C)CCCC(C)C (centres unmarked) [DPanDMA, 1,2-Diphytanyloxy-3-(N,N-dimethyl)-propylamine]	–	–	75%	100%	0.08	76 nm	no difference in silencing activity	5.5
